Measured values reported in US9199984B2, “Inhibition of enzymes” (CHIESI FARMACEUTICI S.p.A., priority 2012, dated 2015).
Counter-ions that a name gives are not always drawn.

Target: T1, human neutrophil elastase (HNE) (Homo sapiens, UniProt P08246)
T1 construct: purchased Sigma E8140
T1 sequence (P08246 30-247 limits assumed): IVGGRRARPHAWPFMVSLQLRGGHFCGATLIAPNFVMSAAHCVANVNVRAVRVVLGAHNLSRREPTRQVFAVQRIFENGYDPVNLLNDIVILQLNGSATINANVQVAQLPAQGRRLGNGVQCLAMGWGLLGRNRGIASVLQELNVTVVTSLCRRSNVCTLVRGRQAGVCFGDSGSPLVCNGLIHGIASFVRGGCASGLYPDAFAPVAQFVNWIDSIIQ
Test: HNE enzyme activity assay
Type: biochemical
Details: human leukocyte elastase, substrate MeOSuc-Ala-Ala-Pro-Val-AMC 100 μM, 25° C. for 30 minutes, fluorescence; read-out: HNE inhibition
Description: Compounds of the present invention were tested for potency in a human neutrophil elastase (HNE) enzyme activity assay.
Assays were performed in 96-well plates in a total assay volume of 100 μl. The final concentration of elastase enzyme (human leukocyte elastase, Sigma E8140) was 0.0036 units/well […]. The peptide substrate (MeOSuc-Ala-Ala-Pro-Val-AMC, Calbiochem #324740) was used at a final concentration of 100 μM. The final concentration of DMSO was 1% in the assay buffer (0.05M Tris.HCl, 0.1M NaCl, 0.1M CaCl2, 0.0005% brij-35, pH 7.5). The enzymatic reaction was started by addition of the enzyme and incubated at 25° C. for 30 minutes. After incubation, the reaction was stopped by addition of soybean trypsin inhibitor (Sigma T9003) at a final concentration of 50 μg/well. Fluorescence was measured using a Molecular Devices fluorescence plate reader using 380 nm excitation and 460 nm emission wavelengths.
A dose response to each compound was performed and the effect of compound in each experiment was expressed as a percentage inhibition of the control enzyme fluorescence. Dose response curves were plotted and compound potency (IC50) was determined. Compounds were tested in at least two separate experiments.

| IC50 [nM] | Compound |
| --- | --- |
| < 20 | CC(=O)Nc1nc2c(-c3cccc(C(F)(F)F)c3)c(C)c(-c3ccnn3-c3ccc(C#N)cc3)cn2n1 [Example 26, N-[6-[2-(4-Cyano-phenyl)-2H-pyrazol-3-yl]-7-methyl-8-(3-trifluoromethyl-phenyl)-[1,2,4]triazolo[1,5-a]pyridin-2-yl]-acetamide] |
| 20 to 100 | Cc1c(-c2ccnn2-c2ccc(C#N)cc2)cn2nc(NS(C)(=O)=O)nc2c1-c1cccc(C(F)(F)F)c1 [Example 27, N-[6-[2-(4-Cyano-phenyl)-2H-pyrazol-3-yl]-7-methyl-8-(3-trifluoromethyl-phenyl)-[1,2,4]triazolo[1,5-a]pyridin-2-yl]-methanesulfonamide] |
| < 20 | Cc1c(-c2ccnn2-c2ccc(C#N)cc2)cn2nc(NCCCN(C)C)nc2c1-c1cccc(C(F)(F)F)c1 [Example 28, 4-{5-[2-(3-Dimethylamino-propylamino)-7-methyl-8-(3-trifluoromethyl-phenyl)-[1,2,4]triazolo[1,5-a]pyridin-6-yl]-pyrazol-1-yl}-benzonitrile] |
| 20 to 100 | Cc1c(-c2ccnn2-c2ccc(C#N)cc2)cn2nc(NCCN(C)C)nc2c1-c1cccc(C(F)(F)F)c1 [Example 29, 4-{5-[2-(2-Dimethylamino-ethylamino)-7-methyl-8-(3-trifluoromethyl-phenyl)-[1,2,4]triazolo[1,5-a]pyridin-6-yl]-pyrazol-1-yl}-benzonitrile] |
| < 20 | Cc1c(-c2ccnn2-c2ccc(C#N)cc2)cn2nc(NCCCCN(C)C)nc2c1-c1cccc(C(F)(F)F)c1 [Example 30, 4-{5-[2-(4-Dimethylamino-butylamino)-7-methyl-8-(3-trifluoromethyl-phenyl)-[1,2,4]triazolo[1,5-a]pyridin-6-yl]-pyrazol-1-yl}-benzonitrile] |
| 100 to 500 | COc1nc2c(-c3cccc(C(F)(F)F)c3)c(C)c(-c3ccnn3-c3ccc(C#N)cc3)cn2n1 [Example 31, 4-{5-[2-Methoxy-7-methyl-8-(3-trifluoromethyl-phenyl)-[1,2,4]triazolo[1,5-a]pyridin-6-yl]-pyrazol-1-yl}-benzonitrile] |
| < 20 | Cc1c(-c2ccnn2-c2ccc(C#N)cc2)cn2nc(NCCC[N+](C)(C)C)nc2c1-c1cccc(C(F)(F)F)c1 [Example 32, {3-[6-[2-(4-Cyano-phenyl)-2H-pyrazol-3-yl]-7-methyl-8-(3-trifluoromethyl-phenyl)-[1,2,4]triazolo[1,5-a]pyridin-2-ylamino]-propyl}-trimethyl-ammonium benzenesulfonate] |
| < 20 | Cc1c(-c2ccnn2-c2ccc(C#N)cc2)cn2nc(NCC[N+](C)(C)C)nc2c1-c1cccc(C(F)(F)F)c1 [Example 33, {3-[6-[2-(4-Cyano-phenyl)-2H-pyrazol-3-yl]-7-methyl-8-(3-trifluoromethyl-phenyl)-[1,2,4]triazolo[1,5-a]pyridin-2-ylamino]-ethyl}-trimethyl-ammonium benzenesulfonate] |
| < 20 | Cc1c(-c2ccnn2-c2ccc(C#N)cc2)cn2nc(NCCCC[N+](C)(C)C)nc2c1-c1cccc(C(F)(F)F)c1 [Example 34, {4-[6-[2-(4-Cyano-phenyl)-2H-pyrazol-3-yl]-7-methyl-8-(3-trifluoromethyl-phenyl)-[1,2,4]triazolo[1,5-a]pyridin-2-ylamino]-butyl}-trimethyl-ammonium formate] |
| < 20 | CCOC(=O)Nc1nc2c(-c3cccc(C(F)(F)F)c3)c(C)c(-c3ccnn3-c3ccc(C#N)cc3)cn2n1 [Example 35, [6-[2-(4-Cyano-phenyl)-2H-pyrazol-3-yl]-7-methyl-8-(3-trifluoromethyl-phenyl)-[1,2,4]triazolo[1,5-a]pyridin-2-yl]-carbamic acid ethyl ester] |
| < 20 | COCCOC(=O)Nc1nc2c(-c3cccc(C(F)(F)F)c3)c(C)c(-c3ccnn3-c3ccc(C#N)cc3)cn2n1 [Example 36, [6-[2-(4-Cyano-phenyl)-2H-pyrazol-3-yl]-7-methyl-8-(3-trifluoromethyl-phenyl)-[1,2,4]triazolo[1,5-a]pyridin-2-yl]-carbamic acid 2-methoxyethyl ester] |
| < 20 | Cc1c(-c2ccnn2-c2ccc(C#N)cc2)cn2nc(NC(=O)OCCC[N+](C)(C)C)nc2c1-c1cccc(C(F)(F)F)c1 [Example 37, {3-[6-[2-(4-Cyano-phenyl)-2H-pyrazol-3-yl]-7-methyl-8-(3-trifluoromethyl-phenyl)-[1,2,4]triazolo[1,5-a]pyridin-2-ylcarbamoyloxy]-propyl}-trimethyl-ammonium formate] |
| < 20 | Cc1c(-c2ccnn2-c2ccc(C#N)cc2)cn2nc(NC(=O)NCCC[N+](C)(C)C)nc2c1-c1cccc(C(F)(F)F)c1 [Example 38, (3-{3-[6-[2-(4-Cyano-phenyl)-2H-pyrazol-3-yl]-7-methyl-8-(3-trifluoromethyl-phenyl)-[1,2,4]triazolo[1,5-a]pyridin-2-yl]-ureido}-propyl)-trimethyl-ammonium formate] |
| < 20 | CC(=O)Nc1nc2c(-c3cccc(C(F)(F)F)c3)c(C)c(-c3ncnn3-c3ccc(C#N)cc3)cn2n1 [Example 39, N-[6-[2-(4-Cyano-phenyl)-2H-[1,2,4]triazol-3-yl]-7-methyl-8-(3-trifluoromethyl-phenyl)-[1,2,4]triazolo[1,5-a]pyridin-2-yl]-acetamide] |
| < 20 | Cc1c(-c2ccnn2-c2ccc(C#N)cc2S(C)(=O)=O)cn2nc(N)nc2c1-c1cccc(C(F)(F)F)c1 [Example 40, 4-{5-[2-Amino-7-methyl-8-(3-trifluoromethyl-phenyl)-[1,2,4]triazolo[1,5-a]pyridin-6-yl]pyrazol-1-yl}-3-methanesulfonyl-benzonitrile] |
| < 20 | CC(=O)Nc1nc2c(-c3cccc(C(F)(F)F)c3)c(C)c(-c3ccnn3-c3ccc(C#N)cc3F)cn2n1 [Example 41, N-[6-[2-(4-Cyano-2-fluoro-phenyl)-2H-pyrazol-3-yl]-7-methyl-8-(3-trifluoromethyl-phenyl)-[1,2,4]triazolo[1,5-a]pyridin-2-yl]-acetamide] |
| < 20 | CC(=O)Nc1nc2c(-c3cccc(C(F)(F)F)c3)c(C)c(-c3c(C)cnn3-c3ccc(C#N)cc3)cn2n1 [Example 42, N-[6-[2-(4-Cyano-phenyl)-4-methyl-2H-pyrazol-3-yl]-7-methyl-8-(3-trifluoromethyl-phenyl)-[1,2,4]triazolo[1,5-a]pyridin-2-yl]-acetamide] |
| < 20 | CC(=O)Nc1nc2c(-c3cccc(C(F)(F)F)c3)c(C)c(-c3ccccc3-c3ccc(C#N)cc3)cn2n1 [Example 43] |
| 20 to 100 | CC(=O)Nc1nc2c(-c3cccc(OC(F)(F)F)c3)c(C)c(-c3ccnn3-c3ccc(C#N)cc3)cn2n1 [Example 44, N-[6-[2-(4-Cyano-phenyl)-2H-pyrazol-3-yl]-7-methyl-8-(3-trifluoromethoxy-phenyl)-[1,2,4]triazolo[1,5-a]pyridin-2-yl]-acetamide] |
| < 20 | Cc1c(-c2ccnn2-c2ccc(C#N)cc2)cn2nc(NC(=O)CC[S+](C)[O-])nc2c1-c1cccc(C(F)(F)F)c1 (stereo not shown) [Example 45, N-[6-[2-(4-Cyano-phenyl)-2H-pyrazol-3-yl]-7-methyl-8-(3-trifluoromethyl-phenyl)[1,2,4]triazolo[1,5-a]pyridin-2-yl]-3-methanesulfinyl-propionamide] |
| < 20 | Cc1c(-c2ccnn2-c2ccc(C#N)cc2)cn2nc(NC(=O)CCS(C)(=O)=O)nc2c1-c1cccc(C(F)(F)F)c1 [Example 46, N-[6-[2-(4-Cyano-phenyl)-2H-pyrazol-3-yl]-7-methyl-8-(3-trifluoromethyl-phenyl)-[1,2,4]triazolo[1,5-a]pyridin-2-yl]-3-methanesulfonyl-propionamide] |
| < 20 | Cc1c(-c2ccnn2-c2ccc(C#N)cc2)cn2nc(NCCCS(C)(=O)=O)nc2c1-c1cccc(C(F)(F)F)c1 [Example 47, 4-{5-[2-(3-Methanesulfonyl-propylamino)-7-methyl-8-(3-trifluoromethyl-phenyl)-[1,2,4]triazolo[1,5-a]pyridin-6-yl]-pyrazol-1-yl}-benzonitrile] |
| < 20 | Cc1c(-c2ccnn2-c2ccc(C#N)cc2)cn2nc(NCCO)nc2c1-c1cccc(C(F)(F)F)c1 [Example 48, 4-{5-[2-(2-Hydroxy-ethylamino)-7-methyl-8-(3-trifluoromethyl-phenyl)-[1,2,4]triazolo[1,5-a]pyridin-6-yl]-pyrazol-1-yl}-benzonitrile] |
| < 20 | Cc1c(-c2ccnn2-c2ccc(C#N)cc2)cn2nc(NCC(C)O)nc2c1-c1cccc(C(F)(F)F)c1 (stereo not shown) [Example 49, 4-{5-[2-(2-Hydroxy-propylamino)-7-methyl-8-(3-trifluoromethyl-phenyl)-[1,2,4]triazolo[1,5-a]pyridin-6-yl]-pyrazol-1-yl}-benzonitrile] |
| < 20 | Cc1c(-c2ccnn2-c2ccc(C#N)cc2)cn2nc(NC(=O)NC3CCNCC3)nc2c1-c1cccc(C(F)(F)F)c1 [Example 50, 1-[6-[2-(4-Cyano-phenyl)-2H-pyrazol-3-yl]-7-methyl-8-(3-trifluoromethyl-phenyl)-[1,2,4]triazolo[1,5-a]pyridin-2-yl]-3-piperidin-4-yl-urea] |
